# According to patent publication US20220251105A1, “METHODS OF TREATING A MK2-MEDIATED DISORDER” (Celgene CAR LLC, priority 2019, published 2022):
# Read-outs that look alike come from different tables or passages of the source.
# Columns and labels:
# [1] = single intravenous dose pharmacokinetics in Sprague Dawley rats; type: in vivo; conditions: rat, plasma; for Vd: read-out: Vdss
# Experimental: (§1) In vitro and in vivo studies were conducted to characterize the absorption, PK, distribution, and metabolism of Compound 1. […] Additionally, plasma samples from single dose PK studies in mice and monkeys were evaluated for circulating metabolites.
# in vivo = conditions: HLA-B27/Huβ2m transgenic, rat, plasma, po
# Text: In each disease model, steady-state pharmacokinetics were characterized.
# [2] = tested on: Mannan PsA in C57B1/6 mice; assay: mannan-induced psoriatic arthritis model; type: in vivo, mouse
# [3] = single oral dose pharmacokinetics in cynomolgus monkeys; type: in vivo, cynomolgus monkey
# Experimental: as §1
# [4] = single intravenous dose pharmacokinetics in CD-1 mice; type: in vivo, mouse; conditions: for Vd: read-out: Vdss
# Experimental: as §1
# Monkey/Cynomolgus [5] = assay: 7-day repeat dose toxicity study in cynomolgus monkeys; type: in vivo; conditions: monkeys, 25, 75, 250 mg/kg/day
# Experimental: (§2) In cynomolgus monkeys, a 7-day repeat dose toxicity study was conducted with doses up to 250 mg/kg/day. […] To aid in dose selection for a subsequent pivotal study, an additional study was conducted to determine the maximum feasible dose under optimal feeding conditions in cynomolgus monkeys. […] Dosing monkeys in the fasted state prior to dosing yielded more consistently higher exposures. Therefore, a dose of 375 mg/kg in 0.5% methyl cellulose (400 cps) and 0.1% Tween 80 administered to fasted monkeys was selected for the 14-day repeat-dose phase of the study, and was considered the maximum feasible dose.
# [6] = toxicokinetics, single dose and 14-day monkey study; type: in vivo; conditions: cynomolgus monkey, plasma, po, monkeys
# Experimental: as §2
# [7] = pivotal 28-day repeat-dose toxicity study in monkeys; type: in vivo, cynomolgus monkey; conditions: both sexes, cynomolgus monkey, in vivo; monkeys, 28 days, highest dose used; read-out: NOAEL with respect to dose
# [8] = tested on: cynomolgus monkeys (Macaca fascicularis); assay: as above; type: in vivo, cynomolgus monkey
# [9] = tested on: Ankylosing spondylitis in HLA B27 Tg rat; assay: HLA-B27/Huβ2m transgenic rat model of ankylosing spondylitis
# Text: Etanercept and tofactinib (Balagué et al. Profiling of dihydroorotate dehydrogenase, p38 and JAK inhibitors in the rat adjuvant-induced arthritis model: a translational study. Br J Pharmacol. 2012 June; 166(4):1320-32) were included in this rat study as comparator molecules.
# [10] = exposure in 28- and 91-day monkey toxicology studies
# [11] = tested on: cytokines and chemokines produced by ankylosing spondylitis patient cells (TNF-α, IL-17A, MCP-1, IL-6); assay: ex vivo cytokine and chemokine production by ankylosing spondylitis patient cells; type: cell-based, human; conditions: ankylosing spondylitis patient cells in vitro
# Monkey/Cynomolgus [12] = assay: single dose (fasted/non-fasted) and 14-day repeat-dose study in cynomolgus monkeys; type: in vivo
# Experimental: as §2
# [13] = 91-day repeat-dose toxicology study with mice; type: in vivo, mouse; conditions: mouse, in vivo, 91-day
# mice = assay: 91-day repeat-dose toxicology study with mice; type: in vivo, mouse; conditions: 750 mg/kg/day
# [14] = Phase 1 first in human study, pharmacokinetics; type: in vivo
# [15] = cynomolgus monkey, plasma, monkey, female, single oral 50 mg/kg
# [16] = cynomolgus monkey, plasma, monkey, female, single oral 150 mg/kg
# [17] = cynomolgus monkey, plasma, monkey, female, single oral 375 mg/kg
# [18] = cynomolgus monkey, plasma, monkey, male, single oral 50 mg/kg
# [19] = cynomolgus monkey, plasma, monkey, male, single oral 150 mg/kg
# [20] = cynomolgus monkey, plasma, monkey, male, single oral 375 mg/kg
# [21] = CD-1, plasma, mouse, female, single IV 5 mg/kg
# [22] = CD-1, plasma, mouse, male, single IV 5 mg/kg
# [23] = cynomolgus monkey, in vivo, 150 mg/kg/day
structure (smiles),measurement,setting,value
CCOCc1cnc(Cl)nc1Oc1ccc2c(ccc3sc4c(c32)NC[C@@H](C)NC4=O)n1 [Compound 1],half-life,"[1]; both sexes, iv, 5 mg/kg, rats, read-out: terminal half-life",≤ 1 h
same,AUC,"[1]; female, single IV 5 mg/kg",3950 ng·h/mL
same,AUC(0-inf),"[1]; female, single IV 5 mg/kg",3960 ng·h/mL
same,clearance,"[1]; female, single IV 5 mg/kg",21.5 mL/min/kg
same,Vd,"[1]; female, single IV 5 mg/kg",0.561 L/kg
same,half-life,"[1]; female, single IV 5 mg/kg, read-out: t1/2,z (converted)",1.1 h
same,AUC,"[1]; male, single IV 5 mg/kg",2020 ng·h/mL
same,AUC(0-inf),"[1]; male, single IV 5 mg/kg",2020 ng·h/mL
same,clearance,"[1]; male, single IV 5 mg/kg",42.2 mL/min/kg
same,Vd,"[1]; male, single IV 5 mg/kg",0.648 L/kg
same,half-life,"[1]; male, single IV 5 mg/kg, read-out: t1/2,z (converted)",0.23 h
same,AUC,in vivo; 20 mg/kg,2820 ng·h/mL
same,AUC,in vivo; 100 mg/kg,7190 ng·h/mL
same,% Inhibition by PsASI,"[2]; 3 mg/kg, from PsASI-score time curve",36% by
same,Minimally Efficacious Dose,"[2]; endpoint PsASI score (ear thickness, skin flakiness, paw score combined)",3 mg/kg
same,bioavailability,"[3]; both sexes, cynomolgus monkey, plasma, po, monkeys, doses in the range 15 to 375 mg/kg",8 to 28%
same,Tmax,"[3]; both sexes, cynomolgus monkey, plasma, monkeys, oral dosing, read-out: time to maximum plasma concentration (tmax)",1 to 6 h
same,AUC,[3]; [15],3810 ng·h/mL
same,AUC(0-inf),[3]; [15],3840 ng·h/mL
same,Cmax,[3]; [15],1040 ng/mL
same,Tmax,"[3]; cynomolgus monkey, plasma, monkey, female, single oral 50 mg/kg, median, read-out: tmax",2 h
same,AUC,[3]; [16],4750 ng·h/mL
same,AUC(0-inf),[3]; [16],4820 ng·h/mL
same,Cmax,[3]; [16],1200 ng/mL
same,Tmax,"[3]; cynomolgus monkey, plasma, monkey, female, single oral 150 mg/kg, median, read-out: tmax",2 h
same,AUC,[3]; [17],22600 ng·h/mL
same,AUC(0-inf),[3]; [17],22700 ng·h/mL
same,Cmax,[3]; [17],2530 ng/mL
same,Tmax,"[3]; cynomolgus monkey, plasma, monkey, female, single oral 375 mg/kg, median, read-out: tmax",6 h
same,AUC,[3]; [18],3680 ng·h/mL
same,AUC(0-inf),[3]; [18],3710 ng·h/mL
same,Cmax,[3]; [18],865 ng/mL
same,Tmax,"[3]; cynomolgus monkey, plasma, monkey, male, single oral 50 mg/kg, median, read-out: tmax",2 h
same,AUC,[3]; [19],8480 ng·h/mL
same,AUC(0-inf),[3]; [19],8590 ng·h/mL
same,Cmax,[3]; [19],1990 ng/mL
same,Tmax,"[3]; cynomolgus monkey, plasma, monkey, male, single oral 150 mg/kg, median, read-out: tmax",1 h
same,AUC,[3]; [20],13900 ng·h/mL
same,AUC(0-inf),[3]; [20],14000 ng·h/mL
same,Cmax,[3]; [20],1890 ng/mL
same,F,"[3]; monkey, female, single oral 50 mg/kg",19%
same,F,"[3]; monkey, female, single oral 150 mg/kg",8%
same,F,"[3]; monkey, female, single oral 375 mg/kg",15%
same,F,"[3]; monkey, male, single oral 50 mg/kg",18%
same,F,"[3]; monkey, male, single oral 150 mg/kg",14%
same,F,"[3]; monkey, male, single oral 375 mg/kg",9%
same,AUC,[4]; [21],3400 ng·h/mL
same,AUC(0-inf),[4]; [21],3430 ng·h/mL
same,clearance,[4]; [21],24.3 mL/min/kg
same,Vd,[4]; [21],2.49 L/kg
same,half-life,"[4]; CD-1, plasma, mouse, female, single IV 5 mg/kg, read-out: t1/2,z (converted)",6.6 h
same,AUC,[4]; [22],4160 ng·h/mL
same,AUC(0-inf),[4]; [22],4350 ng·h/mL
same,clearance,[4]; [22],19.2 mL/min/kg
same,Vd,[4]; [22],5.08 L/kg
same,half-life,"[4]; CD-1, plasma, mouse, male, single IV 5 mg/kg, read-out: t1/2,z (converted)",7.3 h
same,half-life,"[4]; both sexes, CD-1, mouse, plasma, iv, 5 mg/kg, mice, read-out: terminal half-life (converted)",~7 h
same,systemic clearance as % of liver blood flow,"[4]; mice, IV",approximately 25 % of liver blood flow
same,"Findings, 7 days",Monkey/Cynomolgus [5],no compound-related findings in any endpoints
same,AUC(0-t),"[6]; 375 mg/kg, 375 mg/kg, fasted, read-out: Mean Day 1 AUC0-t",11500 ng·h/mL
same,AUC(0-t),"[6]; 375 mg/kg, 375 mg/kg, non-fasted, read-out: Mean Day 1 AUC0-t",4060 ng·h/mL
same,AUC(0-t),"[6]; 375 mg/kg/day, fasted, 375 mg/kg/day, read-out: Mean Day 14 AUC0-t",5510 ng·h/mL
same,AUC(0-t),"[6]; 500 mg/kg, 500 mg/kg, fasted, read-out: Mean Day 1 AUC0-t",14300 ng·h/mL
same,AUC(0-t),"[6]; 500 mg/kg, 500 mg/kg, non-fasted, read-out: Mean Day 1 AUC0-t",11400 ng·h/mL
same,NOAEL at 28 days,[7],375 mg/kg/day
same,"clinical observation, stool (non-adverse)","[8]; cynomolgus monkey, in vivo, 50 mg/kg/day",discolored and/or watery stool
same,"clinical observation, urine (non-adverse)",[8]; [23],dose-dependent incidents of discolored urine
same,"microscopic finding, skeletal muscle (non-adverse)",[8]; [23],Minimal myofiber degeneration in skeletal muscle
same,"mortality, body weight, ophthalmic examinations, electrocardiograms, clinical pathology, macroscopic observations, organ weights","[8]; monkeys, 50, 150, 375 mg/kg/day, 28 days",no compound-related effects
same,Paw Swelling Inhibition (%),[9]; 100 mg/kg daily oral gavage,65%
same,dose dependence of inhibition of paw swelling,[9]; 20 and 100 mg/kg,dose-dependent inhibition of paw swelling
same,"cytokines IL-7, IL-1β; chemokines MCP-1, MIP-1α, KC; GM-CSF",[9]; HLA-B27/Huβ2m rats,A trend towards decreases
same,Minimally Efficacious Dose (lowest tested dose determined to be effective),[9]; endpoint paw score,20 mg/kg
same,AUC,"[10]; cynomolgus monkey, plasma, oral, 375 mg/kg/day",9120 ng·h/mL
same,margin of monkey exposure over human 150-mg dose,[10]; monkey NOAEL AUCLST vs human 150 mg,6.7 fold
same,"production of cytokines and chemokines incl. TNF-α, IL-17A, MCP-1, IL-6",[11],significantly inhibited
same,"Findings, single dose phase","Monkey/Cynomolgus [12]; 375 and 500 mg/kg, fasted and non-fasted",No compound-related findings
same,"Findings, 14-day phase","Monkey/Cynomolgus [12]; fasted, 375 mg/kg/day",No compound-related findings
same,NOAEL at 91 days,[13],100 mg/kg/day
same,finding on which the NOAEL was based,mice,microscopic findings in the heart
same,dose proportionality of Cmax and AUC,"[14]; Day 14, multiple daily doses 10 mg to 150 mg",approximately dose-proportional manner
same,effect of food on PK,"[14]; current capsule formulation, fed vs fasted",limited effect
same,accumulation,[14]; daily dosing for 14 days,limited to no observed accumulation
same,AUC,"[14]; human, in vivo, oral, humans, 150 mg, read-out: observed AUCLST",1360 ng·h/mL
same,half-life at 14 days,"[14]; human, plasma, oral, Day 14, multiple daily doses 10 mg to 150 mg, read-out: t½, geometric mean",1.96 to 4.39 h
same,Tmax at 14 days,"[14]; human, plasma, oral, multiple daily doses, 10 mg to 150 mg",1 to 2.5 h
same,Tmax,"[14]; human, plasma, single oral dose, 3 mg to 400 mg, read-out: median Tmax",1 to 3 h
same,half-life,"[14]; human, plasma, single oral dose, 3 mg to 400 mg, read-out: terminal elimination half-life (t½), geometric mean",1.66 to 6.95 h
same,predicted human bioavailability,[14]; prediction before food effect part,25%
same,dose proportionality of Cmax and AUC,"[14]; single oral dose, 3 mg to 400 mg",approximately dose proportional manner
